Values joined by “and” are separate entries in the source; they are usually repeats but may differ in a detail not shown here. Equal values may be shown once. Read-outs that look alike come from different tables or passages of the source.
Legend:
HepaRG cells = test: HepaRG cellular metabolic stability; conditions: after 3 h loading at 20 μM, 37 °C
From the text: Naturally, due the metabolic complexity of HepaRG cells, we specifically analyzed prodrug cellular uptake and stability, as represented by Cmax and intrinsic clearance (Clint,u) accordingly (Figure 7 and Table 9).
The HepaRG cell line (HPRGC10, Thermo Fisher Scientific) was used to evaluate the cellular permeability and metabolic stability for select final compounds in vitro. The cells were initially thawed with working media composed of HepaRG Thaw, Plate, & General Purpose Medium Supplement (HPRG670), Williams Medium E (100 mL), and GlutaMax (1 mL), all purchased from Thermo Fisher Scientific. […] After the thawing medium was aspirated from each well, the cells were cultured for an additional 6 days with working media consisting of HepaRG Maintenance/Metabolism Medium Supplement (HPRG720), Williams Medium E (500 mL), and GlutaMax (1 mL), all purchased from Thermo Fisher Scientific. Upon completing the 7-day culture period, HepaRG cells were plated in enough wells to allow for duplicate analysis of prodrugs in two independent cellular uptake or metabolic stability experiments. All studied compounds were formulated with human serum albumin (HSA, 5:1 compound to HSA molar ratio) and subsequently diluted to a 20 μM final concentration with assay medium composed of serum-free INVITROGRO HI Medium and TORPEDO Antibiotic Mix purchased from BioIVT. For cellular uptake determinations, the maintenance/metabolism medium was first aspirated from each well, and then the plated cells were spiked with 1.0 mL of test compound stock solution. Subsequently, the plate was incubated at 37 °C under 5% CO2 environment over the desired time course (seven data points/compound). Blank wells not treated with prodrug were included in assay runs as controls and initial time points (0 min). At each time point, the test compound solution was removed from the appropriate wells, and the plated cells were washed with 1.0 mL of DPBS twice. The HepaRG cells were then extracted with 500 μL of cold ISTD solution (1 μM 7-ethoxy-d5-coumarin in 70/30 MeOH/H2O), and the quenched aliquots were centrifuged at 15,000 g for 10 min at 4 °C. […] After obtaining prodrug Cmax and Tmax values from the cellular uptake assay, HepaRG metabolic stability was then assessed. Following the initial 7-day culture procedure, the maintenance/metabolism medium was aspirated from each well, and the plated cells were spiked with 1.0 mL of test compound stock solution. […] The test compound solution was then removed from each well and replaced with untreated dilution medium (i.e., serum-free INVITROGRO HI Medium and TORPEDO Antibiotic Mix), initializing the stability determination. The HepaRG plate was once more incubated at 37 °C under 5% CO2 atmosphere over the desired time course (nine data points/compound), and sample preparation and analysis were handled in identical fashion to cellular uptake experiments.

[1] = Mouse plasma pharmacokinetics after intravenous dose; assay type: in vivo, male C57BL/6 mice; conditions: i.v. 3 mg/kg
Procedure: (§1) To compare the in vivo PK profiles to TXL and our previously reported drug lead 1 (Tables S19 and S26),[39] one group of male C57BL/6 mice were administered a single oral dose (p.o., 10 mg/kg) of 2a, 16g, or 16h (refer to Experimental Methods). Additionally, a separate group of mice were given a single intravenous dose (i.v., 3 mg/kg) of each prodrug to obtain plasma clearance (Cl), volume of distribution (Vd), and oral bioavailability data. Blood was sampled at 8 time points over 8 h (i.v.) or 24 h (p.o.) postdose, and plasma was isolated via centrifugation. Tissues (liver, kidney, and brain) were also harvested and homogenized at 3 time points over 24 h after oral dose. The concentrations of prodrug and TFV metabolite in each of these samples was then quantified using LC–MS/MS methodology.
(§2) Healthy male C57BL/6 mice (8–12 weeks old) weighing 20–30 g were procured from Global, India. Three mice were housed in each cage. Temperature and humidity were maintained at 22 ± 3 °C and 30–70%, respectively, and illumination was controlled to provide for 12 h light and 12 h dark cycles. Temperature and humidity were recorded by an autocontrolled data logger system. All animals were provided a laboratory rodent diet (Envigo Research private Ltd., Hyderabad). Reverse osmosis H2O treated with ultraviolet light was provided ad libitum.
(§3) Male mice were divided into two groups (n = 18 total, n = 9 per treatment group, n = 3 per time point, sparse sampling). One group was intravenously administered a solution of 2a, 16g, and 16h in 10% PEG-300, 10% Solutol HS-15, and 80% saline at 3 mg/kg with a dosing volume of 5 mL/kg. The second group was administered a solution of 2a, 16g, and 16h in 10% EtOH and 90% olive oil at 10 mg/kg via oral gavage with a dosing volume of 10 mL/kg.
(§4) Blood samples (approximately 60 μL) were collected from retro-orbital plexus under light isoflurane anesthesia such that the samples were obtained predose, as well as at eight time points post dose: 0.1, 0.25, 0.5, 1, 2, 4, 6, and 8 (i.v.) and 0.25, 0.5, 1, 2, 4, 8, 12, and 24 h (p.o.). Immediately after blood collection, plasma samples were harvested by centrifugation at 4000 rpm and 4 °C for 10 min and stored at −70 °C until LC–MS/MS analysis. Following blood collection from p.o. group, liver, kidney, and brain samples were collected (n = 3 per treatment group per time point) at 1, 4, and 24 h post dose. After isolation, tissue samples were rinsed three times with ice-cold saline and dried with blotting paper. Next, the tissue samples were homogenized using ice-cold PBS (pH = 7.4), and the resulting homogenates were stored below −70 °C until LC-MS/MS analysis. The total homogenate volume was 3 times the brain weight and 5 times the liver and kidney weight.
(§5) Areas under the concentration–time curves (AUC0–8h and AUC0–24h) were calculated via the linear trapezoidal rule[65] using GraphPad Prism v9. Furthermore, terminal elimination rate constants k were determined using linear regression (slope = −k) of the terminal portion of semilog-transformed concentration–time curves (Figures S44, S45, S47, S48, S50, and S51).

[2] = tested on: HIV-1 subtype C strain MJ4; test: Single-cycle non-replicating HIV pseudoviral luciferase assay in HEK293T cells; conditions: Human immunodeficiency virus 1, HEK-293T, read-out: HIV IC50
Procedure: Second, HIV IC50 and cellular CC50 were determined with a pseudoviral, whole (HEK293T) cell, nonreplicative HIV assay, using the HIV-1 subtype C strain MJ4 (refer to Experimental Methods). To account for the unique amphiphilic properties of TXL and the novel HTP-based prodrugs, all compounds were formulated in a human serum albumin (HSA) solution (5:1 drug:protein).
Assessment of cytotoxicity and antiviral activity of all final compounds in vitro was conducted according to previously reported procedures.[39] In summary, human embryonic kidney (HEK293T) cells maintained in high glucose (25 mM), Dulbecco’s modified Eagle’s medium (DMEM) supplemented with fetal bovine serum (10%), sodium pyruvate (1 mM), L-glutamine (2 mM), HEPES (25 mM), and gentamicin (50 μg/mL) were used for determinations. The cells were maintained in an incubator at 37 °C under 5% CO2 in a humidified atmosphere. For both cytotoxicity and antiviral screening, all compounds were evaluated in duplicate in at least two independent experiments. All final compounds were formulated with human serum albumin (HSA, 5:1 compound to HSA molar ratio) and subsequently diluted with complete DMEM to 200 μM. Fifty microliters of test compound serial dilutions (3-fold) were prepared in 96-well culture plates, after which 50 μL of HEK293T cells (2 × 10^4 cells/well) was added. […] Cytotoxicity was then assessed by quantifying cell viability using the CellTiter 96 Aqueous One Solution Cell Proliferation Assay (Promega, Madison, WI) or resazurin sodium salt (cat# R7017, Merck, Darmstadt, Germany).[61] […] Antiviral activity was then assessed using a single-cycle, nonreplicating, envelope deleted HIV pseudoviral in vitro assay.[62],[63] The assay relies on the introduction of the firefly luciferase gene into HEK293T cells through infection with HIV-like viral particles, containing Reverse Transcriptase (RT) and Integrase (IN) from the HIV-1 subtype C strain MJ4.[64] The expression of the luciferase in the cells is directly proportional to the level of infection by the HIV-like viral particles and can be used to assess the inhibition of HIV-1 RT and IN. To evaluate anti-HIV activity, 3-fold serial dilutions of all final compounds were prepared in 50 μL over the noncytotoxic concentration range (as determined from the cytotoxicity screens described above) in 96-well culture plates. HEK293T cells (2 × 10^4 cells/well) and HIV-like viral particles, standardized to produce a luminescence signal of 1 × 10^6 relative light units (RLUs) in the growth medium only control, were combined, and 50 μL was added to the wells containing serially diluted test compounds. […] The expression of luciferase was subsequently quantified by adding 100 μL of the Bright-Glo Luciferase Assay substrate (Promega, Madison, WI) to each well of the 96-well plates. After incubation at rt for 3 min, luminescence was quantified on the GloMax Explorer Multimode Microplate Reader (Promega, Madison, WI).

[3] = Mouse tissue (liver, kidney, brain) pharmacokinetics after oral dose; assay type: in vivo, male C57BL/6 mice; conditions: for AUC(0-t) at 24 h: read-out: AUC0–24h
Procedure: as §1, §2, §3, §4, §5

[4] = Mouse plasma pharmacokinetics after oral dose; assay type: in vivo, male C57BL/6 mice
Procedure: as §1, §2, §3, §4, §5

[5] = male, C57BL/6, mouse, iv, prodrug
[6] = male, C57BL/6, mouse, brain, po, p.o. 10 mg/kg, read-out: mean prodrug concentration in brain
[7] = male, C57BL/6, mouse, kidney, po, p.o. 10 mg/kg, read-out: mean prodrug concentration in kidney
[8] = male, C57BL/6, mouse, liver, po, p.o. 10 mg/kg, read-out: mean prodrug concentration in liver
[9] = male, C57BL/6, mouse, po, brain, prodrug, p.o. 10 mg/kg
[10] = male, C57BL/6, mouse, po, kidney, prodrug, p.o. 10 mg/kg
[11] = male, C57BL/6, mouse, po, liver, prodrug, p.o. 10 mg/kg
[12] = male, C57BL/6, mouse, po, plasma, prodrug, p.o. 10 mg/kg

In the case of `C[C@H](Cn1cnc2c(N)ncnc21)OCP(=O)(O)OCCCSCCCCCCCCCCCCc1ccc(F)cc1.N` [16g], the “HepaRG t1/2” value (HepaRG cells) is reported as 0.778 ± 0.005 h, the “k (terminal elimination rate constant)” value ([1]; 3 mg/kg) is reported as 0.4057 and 0.406 and the Vd at 8 h ([1]; male, C57BL/6, mouse, iv) is reported as 19.9 L/kg. The clearance ([1]; male, C57BL/6, mouse, iv) was 134 mL/min/kg, the half-life at 8 h ([1]; male, C57BL/6, mouse, iv) was 1.71 h and the concentration at 0.1 h ([1]; male, C57BL/6, mouse, iv, 0.1 h, read-out: mean prodrug concentration in plasma) was 863 ng/mL. It also gave a concentration at 0.25 h ([1]; male, C57BL/6, mouse, iv, 0.25 h, read-out: mean prodrug concentration in plasma) of 315 ng/mL, a concentration at 0.5 h ([1]; male, C57BL/6, mouse, iv, 0.5 h, read-out: mean prodrug concentration in plasma) of 227 ng/mL and a concentration at 1 h ([1]; male, C57BL/6, mouse, iv, 1 h, read-out: mean prodrug concentration in plasma) of 71.5 ng/mL. For the same compound, the concentration at 2 h ([1]; male, C57BL/6, mouse, iv, 2 h, read-out: mean prodrug concentration in plasma) was 21.6 ng/mL, the concentration at 4 h ([1]; male, C57BL/6, mouse, iv, 4 h, read-out: mean prodrug concentration in plasma) was 12.1 ng/mL and the concentration at 6 h ([1]; male, C57BL/6, mouse, iv, 6 h, read-out: mean prodrug concentration in plasma) was 7.5 ng/mL. For the same compound, the concentration at 8 h ([1]; male, C57BL/6, mouse, iv, 8 h, read-out: mean prodrug concentration in plasma) was 3.12 ng/mL, the Cmax at 8 h [1, 5] was 863 ng/mL and the Tmax at 8 h [1, 5] was 6 min. The AUC(0-t) at 8 h ([1]; male, C57BL/6, mouse, iv, prodrug, read-out: AUC0–8h) was 373 ng·h/mL, the IC50 [2] was 8 to 12 nM and the “TFV in brain tissue” value ([3]; brain, 1, 4 and 24 h after p.o. 10 mg/kg of prodrug, LLOQ 4.84 ng/mL (9.67 for 16h)) was “BLQ”. It also gave a concentration at 1 h [3, 6] of 3.24 ng/mL, a concentration at 4 h [3, 6] of 5.74 ng/mL and a concentration at 1 h [3, 7] of 310 ng/mL. The concentration at 4 h [3, 7] was 602 ng/mL, the concentration at 24 h ([3]; male, C57BL/6, mouse, kidney, po, p.o. 10 mg/kg, 24 h, read-out: mean prodrug concentration in kidney) was 25.4 ng/mL and the concentration at 1 h [3, 8] was 5330 ng/mL. It also gave a concentration at 4 h [3, 8] of 4810 ng/mL, a concentration at 24 h ([3]; male, C57BL/6, mouse, liver, po, p.o. 10 mg/kg, 24 h, read-out: mean prodrug concentration in liver) of 24.8 ng/mL and a Cmax at 24 h [3, 9] of 5.74 ng/mL. The AUC(0-t) at 24 h [3, 9] was 13.5 ng·h/mL, the Cmax at 24 h [3, 10] was 602 ng/mL and the AUC(0-t) at 24 h [3, 10] was 7650 ng·h/mL. The Cmax at 24 h [3, 11] was 5330 ng/mL, the Tmax [3, 11] was 1 h and the AUC(0-t) at 24 h [3, 11] was 63600 ng·h/mL. The “mean prodrug concentration in brain” value ([3]; p.o. 10 mg/kg, 24 h, BLQ = below limit of quantitation) was “BLQ”, the bioavailability ([4]; male, C57BL/6, mouse, plasma, oral, p.o. 10 mg/kg vs i.v. 3 mg/kg, read-out: %F (oral bioavailability)) was 20% and the bioavailability at 24 h ([4]; male, C57BL/6, mouse, plasma, po, p.o. 10 mg/kg vs i.v. 3 mg/kg, read-out: %F (oral bioavailability)) was 20.9%. The concentration at 0.25 h ([4]; male, C57BL/6, mouse, plasma, po, p.o. 10 mg/kg, 0.25 h, read-out: mean prodrug concentration in plasma) was 17 ng/mL, the concentration at 0.5 h ([4]; male, C57BL/6, mouse, plasma, po, p.o. 10 mg/kg, 0.5 h, read-out: mean prodrug concentration in plasma) was 43 ng/mL and the concentration at 1 h ([4]; male, C57BL/6, mouse, plasma, po, p.o. 10 mg/kg, 1 h, read-out: mean prodrug concentration in plasma) was 58.6 ng/mL. It also gave a concentration at 2 h ([4]; male, C57BL/6, mouse, plasma, po, p.o. 10 mg/kg, 2 h, read-out: mean prodrug concentration in plasma) of 55.9 ng/mL, a concentration at 4 h ([4]; male, C57BL/6, mouse, plasma, po, p.o. 10 mg/kg, 4 h, read-out: mean prodrug concentration in plasma) of 16 ng/mL and a concentration at 8 h ([4]; male, C57BL/6, mouse, plasma, po, p.o. 10 mg/kg, 8 h, read-out: mean prodrug concentration in plasma) of 11.2 ng/mL. It also gave a concentration at 12 h ([4]; male, C57BL/6, mouse, plasma, po, p.o. 10 mg/kg, 12 h, read-out: mean prodrug concentration in plasma) of 10.5 ng/mL, a half-life at 24 h ([4]; male, C57BL/6, mouse, po, plasma, p.o. 10 mg/kg) of 4.19 h and a Cmax at 24 h [4, 12] of 58.6 ng/mL. For the same compound, the Tmax [4, 12] was 1 h, the AUC(0-t) at 24 h ([4]; male, C57BL/6, mouse, po, plasma, prodrug, p.o. 10 mg/kg, read-out: AUC0–24h) was 260 ng·h/mL and the “mean TFV concentration in plasma” value ([4]; p.o. 10 mg/kg of prodrug, 0.25 h, LLOQ 4.84 ng/mL) was “BLQ”. The “mean prodrug concentration in plasma” value ([4]; p.o. 10 mg/kg, 24 h, BLQ = below LLOQ (0.58 ng/mL 2a, 0.62 ng/mL 16g)) was “BLQ”, the Vd ([4]; plasma, p.o. 10 mg/kg) was 48.7 L/kg and the “k (terminal elimination rate constant)” value ([4]; plasma, p.o. 10 mg/kg, 10 mg/kg) was 0.1654 and 0.165.

From PMC11513920, “Building Metabolically Stable and Potent Anti-HIV Thioether-Lipid Analogues of Tenofovir Exalidex: A thorough Pharmacological Analysis” (Journal of Medicinal Chemistry, 2024)
